Source: PubChem BioAssay AID1963853 (Molecular Pharmacology Branch, DTP, NCI, 2024)

Tested on: 266295-075-R-J1-PDC spheroid viability
Experiment: Anticancer human tumor 266295-075-R-J1-PDC patient-derived head and neck squamous carcinoma cell line growth inhibition [POLQ]
Conditions: spheroids with HUVEC and MSC; for viability, T/C: stronger effect = lower value
Procedure: Multicellular complex tumor spheroid response to Polymerase (POL) inhibitors (novobiocin, ART-558, RP6685) in combination with a variety of drugs and investigational agents in selected tumor cell lines
The POL inhibitors (novobiocin, ART-558, and RP6685) were evaluated both individually and in combination with standard of care and investigational anticancer small molecules within a complex spheroid model of solid tumors. . Complex spheroids include a stromal component modeled by human endothelial cells (HUVEC) and fibroblasts modeled by human mesenchymal stem cells (MSCs). The concentration ranges selected for each drug and investigational agent were based upon clinically achievable concentrations if the clinical Cmax of the agent was known.
Compounds. The drugs and investigational agents: novobiocin (NSC847541), ART-558 (NSC835418), RP-6685 (NSC848927), peposertib (NSC802822), ceralasertib (NSC780249), elimusertib (NSC800525), camonsertib (NSC841442), AZD-1390 (NSC803789), olaparib (NSC753686), talazoparib (NSC767125), rucaparib (NSC756644), sotorasib (NSC818433), MRTX-1133 (NSC836407), SN-38 (NSC673596), topotecan (NSC609699), epotoside (NSC141540), doxorubicin (NSC123127), gemcitabine (NSC613327), 5-fluorouracil (NSC19893), paclitaxel (NSC125973), vemurafenib (NSC761431), MSA-2 (NSC828583), SN-011 (NSC837082), adavosertib (NSC754352), prexasertib (NSC758257), carboplatin (NSC241240) and oxaliplatin (NSC266046), were obtained from the National Cancer Institute (NCI) Developmental Therapeutics Program Chemical Repository (21). The FDA-approved anticancer drug set is available from the Developmental Therapeutics Program at https://dtp.cancer.gov/organization/dscb/obtaining/. […] The stock solutions were prepared in dimethyl sulfoxide (DMSO, Sigma-Aldrich, St. Louis, MO, cat. D2650), except for the platinum compounds which were prepared in saline (Quality Biological, Gaithersburg, MD, cat. 114-055-101), at 800-fold the tested concentration and stored at -70 degrees C prior to their use. All drugs and investigational agents were tested over a range starting from a high concentration at or near the clinical Cmax and decreasing in half-log increments. If the clinical Cmax for an agent had not been determined, the highest concentration tested was 10 microM, except for SN-38, which was tested at a high concentration of 1 microM.
Cell Culture. All cells were maintained in an incubator at 37 degrees C and 5% CO2 with 95% humidity. The PDC lines were cultured according to standard operating procedures established by the NCI PDMR (https://pdmr.cancer.gov). Table 3 of the manuscript, lists the cell lines along with the number of the three cell types plated to form the mct-spheroids and media for tumor cell growth. After thawing, all PDC lines, except 997537-175-T-J1-PDC and 415267-285-R-J2-PDC, were cultured in Matrigel-coated flasks prepared with a working solution of 1X Ham's F-12 nutrient mix, without supplementation (Thermo Fisher Scientific, cat. 11765054), 100 U/mL penicillin-streptomycin (Thermo Fisher Scientific, cat. 15140122), and 2.5% Matrigel (Corning Inc., Corning, NY, cat. 354248) for the first three passages. The two PDC lines 997537-175-T-J1-PDC and 415267-285-R-J2-PDC were cultured on uncoated flasks. The 857933-349-R-J2-PDC line was cultured in 6C/Colon 1B media containing advanced DMEM/F-12 (Thermo Fisher Scientific, cat. 12634028), 10 mM HEPES (Thermo Fisher Scientific, cat. 15630080), 1X GlutaMAX supplement (Thermo Fisher Scientific, cat. 35050061), 0.1 mg/mL primocin (InvivoGen, San Diego, CA, cat. ant-pm-2), 10% defined fetal bovine serum, heat inactivated (HyClone Laboratories Inc., Logan, UT, cat. SH30070.03HI), 50% L-WRN conditioned media (ATCC, cat. CRL-3276), 1.25 mM N-Acetyl-L-cysteine (Sigma-Aldrich, cat. A9165), 10 mM nicotinamide (Sigma-Aldrich, cat. N0636), 1X B-27 supplement (Thermo Fisher Scientific, cat. 17504044), 1X N-2 supplement (Thermo Fisher Scientific, cat. […]

[1] = curve of first compound, second compound 0.0316 µM
[2] = curve of first compound, second compound 0.1 µM
[3] = curve of first compound, second compound 0.316 µM
[4] = curve of first compound, second compound 1 µM
[5] = curve of first compound, second compound 3.16 µM
[6] = curve of first compound, second compound 10 µM
[7] = second compound 0.0316 µM, first compound 0.0316 µM
[8] = second compound 0.0316 µM, first compound 0.1 µM
[9] = second compound 0.0316 µM, first compound 0.316 µM
[10] = second compound 0.0316 µM, first compound 1 µM
[11] = second compound 0.1 µM, first compound 0.0316 µM
[12] = second compound 0.1 µM, first compound 0.1 µM
[13] = second compound 0.1 µM, first compound 0.316 µM
[14] = second compound 0.1 µM, first compound 1 µM
[15] = second compound 0.316 µM, first compound 0.0316 µM
[16] = second compound 0.316 µM, first compound 0.1 µM
[17] = second compound 0.316 µM, first compound 0.316 µM
[18] = second compound 0.316 µM, first compound 1 µM
[19] = second compound 1 µM, first compound 0.0316 µM
[20] = second compound 1 µM, first compound 0.1 µM
[21] = second compound 1 µM, first compound 0.316 µM
[22] = second compound 1 µM, first compound 1 µM
[23] = second compound 3.16 µM, first compound 0.0316 µM
[24] = second compound 3.16 µM, first compound 0.1 µM
[25] = second compound 3.16 µM, first compound 0.316 µM
[26] = second compound 3.16 µM, first compound 1 µM
[27] = second compound 10 µM, first compound 0.0316 µM
[28] = second compound 10 µM, first compound 0.1 µM
[29] = second compound 10 µM, first compound 0.316 µM
[30] = second compound 10 µM, first compound 1 µM
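Further: spheroids exposed to compounds for seven days before readout.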

Question: Which results are given for `C=CCn1c(=O)c2cnc(Nc3ccc(N4CCN(C)CC4)cc3)nc2n1-c1cccc(C(C)(C)O)n1` + Cc1cccc(N(C)C(=O)C2C(O)CCN2c2nc(C)cc(C(F)(F)F)c2C#N)c1?
Answer: IC50 [1]: > 1 µM; IC50 [2]: > 1 µM; IC50 [3]: > 1 µM; IC50 [4]: > 1 µM; IC50 [5]: > 1 µM; IC50 [6]: > 1 µM; viability, T/C (second compound 0.0316 µM, first compound 0.00316 µM): 97.4%; viability, T/C (second compound 0.0316 µM, first compound 0.01 µM): 97.7%; viability, T/C [7]: 112%; viability, T/C [8]: 101%; viability, T/C [9]: 80%; viability, T/C [10]: 62.5%; viability, T/C (second compound 0.1 µM, first compound 0.00316 µM): 101%; viability, T/C (second compound 0.1 µM, first compound 0.01 µM): 115%; viability, T/C [11]: 111%; viability, T/C [12]: 127%; viability, T/C [13]: 79.4%; viability, T/C [14]: 63%; viability, T/C (second compound 0.316 µM, first compound 0.00316 µM): 119%; viability, T/C (second compound 0.316 µM, first compound 0.01 µM): 116%; viability, T/C [15]: 99.7%; viability, T/C [16]: 131%; viability, T/C [17]: 81.7%; viability, T/C [18]: 64.7%; viability, T/C (second compound 1 µM, first compound 0.00316 µM): 114%; viability, T/C (second compound 1 µM, first compound 0.01 µM): 104%; viability, T/C [19]: 119%; viability, T/C [20]: 78.4%; viability, T/C [21]: 77.4%; viability, T/C [22]: 63.6%; viability, T/C (second compound 3.16 µM, first compound 0.00316 µM): 118%; viability, T/C (second compound 3.16 µM, first compound 0.01 µM): 93.6%; viability, T/C [23]: 91.6%; viability, T/C [24]: 116%; viability, T/C [25]: 68.8%; viability, T/C [26]: 71.5%; viability, T/C (second compound 10 µM, first compound 0.00316 µM): 137%; viability, T/C (second compound 10 µM, first compound 0.01 µM): 117%; viability, T/C [27]: 102%; viability, T/C [28]: 128%; viability, T/C [29]: 87.7%; viability, T/C [30]: 81.8%

Question: What does the source list for `CCc1cc2c(N3CCc4c(cc(Cn5ccnc5)cc4-c4cn(C)nc4C(F)(F)F)C3=O)cc(C)nc2c(OC)n1` + COC1C(OC(N)=O)C(O)C(Oc2ccc3c(O)c(NC(=O)c4ccc(O)c(CC=C(C)C)c4)c(=O)oc3c2C)OC1(C)C?
Answer: IC50 [1]: > 10 µM; IC50 [2]: > 10 µM; IC50 [3]: > 10 µM; IC50 [4]: > 10 µM; IC50 [5]: > 10 µM; IC50 [6]: > 10 µM; viability, T/C [7]: 112%; viability, T/C [8]: 101%; viability, T/C [9]: 114%; viability, T/C [10]: 108%; viability, T/C (second compound 0.0316 µM, first compound 3.16 µM): 134%; viability, T/C (second compound 0.0316 µM, first compound 10 µM): 148%; viability, T/C [11]: 105%; viability, T/C [12]: 102%; viability, T/C [13]: 93.8%; viability, T/C [14]: 121%; viability, T/C (second compound 0.1 µM, first compound 3.16 µM): 134%; viability, T/C (second compound 0.1 µM, first compound 10 µM): 157%; viability, T/C [15]: 85.9%; viability, T/C [16]: 94.2%; viability, T/C [17]: 118%; viability, T/C [18]: 107%; viability, T/C (second compound 0.316 µM, first compound 3.16 µM): 125%; viability, T/C (second compound 0.316 µM, first compound 10 µM): 163%; viability, T/C [19]: 75.3%; viability, T/C [20]: 92.8%; viability, T/C [21]: 102%; viability, T/C [22]: 115%; viability, T/C (second compound 1 µM, first compound 3.16 µM): 145%; viability, T/C (second compound 1 µM, first compound 10 µM): 128%; viability, T/C [23]: 106%; viability, T/C [24]: 95.7%; viability, T/C [25]: 108%; viability, T/C [26]: 113%; viability, T/C (second compound 3.16 µM, first compound 3.16 µM): 126%; viability, T/C (second compound 3.16 µM, first compound 10 µM): 147%; viability, T/C [27]: 98.6%; viability, T/C [28]: 83.8%; viability, T/C [29]: 82.7%; viability, T/C [30]: 120%; viability, T/C (second compound 10 µM, first compound 3.16 µM): 119%; viability, T/C (second compound 10 µM, first compound 10 µM): 154%

Question: `Cc1cccc(N(C)C(=O)C2C(O)CCN2c2nc(C)cc(C(F)(F)F)c2C#N)c1` (stereo unspecified) was tested. Which IC50 (compound alone, run of 10/31/2023) did it give?
Answer: > 10 µM

Question: What about the IC50 (compound alone, run of 11/06/2023) of the same molecule?
Answer: > 10 µM
